Literature values in patent US7674912B2, “Pro-drugs of N-thiazol-2-yl-benzamide derivatives” (priority 2005, dated 2010).
Like-named read-outs stand apart in the source and are kept apart here.

What was measured:
[1] = test system: mice; conditions: for total immobility time: mouse tail suspension test
[2] = test system: unilateral 6-OHDA (6-hydroxydopamine) lesioned mice and rats; conditions: elicited by a subthreshold dose of levodopa, unilateral 6-OHDA lesioned mice and rats
[3] = test system: non-human primates treated with MPTP
[4] = test system: MPTP treated mice and 6-OHDA-lesioned rats
[5] = mice previously screened for having high immobility time

Compound | immobility [1, 5] | contralateral rotations [2] | total immobility time [1] | dyskinesias ([3]; in vivo) | motor impairment induced by MPTP ([3]; non-human primates) | functional loss of dopaminergic nerve terminals in the striatum [4] | gliosis induced around degenerating neurons [4] | immobility ([1]; mice selectively bred for their helplessness)
Nc1nc(NCCc2ccc(O)cc2)nc2nc(-c3ccco3)nn12 [ZM241385, 4-(2-[7-amino-2-(2-furyl)[1,2,4]triazolo[2,3-a][1,3,5]triazin-5-ylamino]-ethyl)phenol] | reduce immobility |  |  |  |  |  |  | 
CCn1c(=O)c2c(nc(/C=C/c3ccc(OC)c(OC)c3)n2C)n(CC)c1=O [KW-6002, 8-[(1E)-2-(3,4-dimethoxyphenyl)ethenyl]-1,3-diethyl-3,7-dihydro-7-methyl-1H-purine-2,6-dione] |  | enhance contralateral rotations | reduced the total immobility time | without causing dyskinesias | significantly improves motor impairment | prevented functional loss of dopaminergic nerve terminals in the striatum | prevented gliosis | 
Nc1nc2c(cnn2CCc2ccccc2)c2nc(-c3ccco3)nn12 [SCH58261, 2-(2-furanyl)-7-(2-phenylethyl)-7H-pyrazolo[4,3-e][1,2,4]triazolo[1,5-c]pyrimidin-5-amine] | reduce immobility | enhance contralateral rotations | reduced the total immobility time |  |  |  |  | reduced immobility
